In US9969741B2, “Pyrazolotriazines as inhibitors of nucleases” (MASARYKOVA UNIVERZITA, priority 2014, dated 2018):

Legend:
[1] = biological target: T1, MUS81/EME1 (Homo sapiens, UniProt Q96NY9); assay: Nuclease inhibition assay, MUS81/EME1 (3′ flap fluorescent DNA substrate, gel readout); assay type: biochemical; conditions: 5 nM enzyme, 5 nM 3′ flap substrate, 15 min at 30° C.
T1 sequence (Q96NY9 1-551): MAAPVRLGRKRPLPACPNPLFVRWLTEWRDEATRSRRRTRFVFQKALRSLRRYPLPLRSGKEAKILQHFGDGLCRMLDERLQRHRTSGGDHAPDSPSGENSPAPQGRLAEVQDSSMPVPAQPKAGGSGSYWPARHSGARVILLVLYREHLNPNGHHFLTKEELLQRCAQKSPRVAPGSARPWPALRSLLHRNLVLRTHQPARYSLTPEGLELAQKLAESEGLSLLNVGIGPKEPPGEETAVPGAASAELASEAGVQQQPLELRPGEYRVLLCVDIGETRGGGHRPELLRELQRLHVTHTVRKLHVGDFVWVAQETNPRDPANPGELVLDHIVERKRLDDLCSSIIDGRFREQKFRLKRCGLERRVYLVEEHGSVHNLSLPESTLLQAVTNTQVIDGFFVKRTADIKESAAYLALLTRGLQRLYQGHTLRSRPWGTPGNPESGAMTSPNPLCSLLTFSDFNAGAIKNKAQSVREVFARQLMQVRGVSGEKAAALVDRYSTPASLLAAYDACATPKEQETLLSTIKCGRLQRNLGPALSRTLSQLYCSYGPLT
T1 sequence (Q96AY2 1-570 partner): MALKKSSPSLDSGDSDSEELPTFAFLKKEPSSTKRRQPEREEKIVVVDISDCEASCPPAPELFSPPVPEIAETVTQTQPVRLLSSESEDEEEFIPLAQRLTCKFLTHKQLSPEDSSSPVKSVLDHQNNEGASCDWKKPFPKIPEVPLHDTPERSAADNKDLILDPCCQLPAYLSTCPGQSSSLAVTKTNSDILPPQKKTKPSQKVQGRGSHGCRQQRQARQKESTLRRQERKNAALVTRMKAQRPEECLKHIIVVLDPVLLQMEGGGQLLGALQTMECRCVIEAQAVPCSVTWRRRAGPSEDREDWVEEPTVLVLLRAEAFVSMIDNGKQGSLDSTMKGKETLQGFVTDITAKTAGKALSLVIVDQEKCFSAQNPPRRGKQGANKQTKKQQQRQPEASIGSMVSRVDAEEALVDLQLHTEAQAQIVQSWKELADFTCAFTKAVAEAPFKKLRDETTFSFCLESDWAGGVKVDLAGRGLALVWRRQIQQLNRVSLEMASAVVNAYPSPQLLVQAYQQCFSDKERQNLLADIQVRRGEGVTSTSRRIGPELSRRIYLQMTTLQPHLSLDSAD
Source text: In vitro assays were used for the determination of compound's IC50 values for inhibition of individual nucleases, i.e., MUS81/EME1, FEN1, EXO1, and MRE11. To generate IC50 values, concentration of compound was plotted against relative nuclease activity (in %). The dose-response curves were generated from inhibition data, from 5 point serial dilutions of inhibitory compounds, each in triplicate and fitted to a standard sigmoid curve. IC50 values were derived by standard nonlinear regression analysis.
All tested compounds were diluted in 100% DMSO (dimethylsulfoxide) to prepare working stocks with different concentrations. To keep the DMSO concentration constant in every reaction, always 0.5 μl of the compound stock was added to the reaction buffer. The reaction buffer differs depending on the enzyme tested. Also concentration of the compounds in the reaction depends on the particular enzyme, since the inhibitory effect of the compounds vary between the enzymes. Nevertheless, always doubling dilutions in the range 200-0.8 μM was used. The compound was added as the first component in the reaction buffer, followed by the enzyme addition. Short (15 minutes) pre-incubation step followed before the reaction was initiated by addition of DNA substrate (5 nM).
As a negative control, DNA substrate specific for each particular enzyme without the addition of the enzyme and the compound was used. The positive control contained all components of the reaction, except the compound of interest. However, to compensate for solvent effects, DMSO (at a final concentration of 2.5%) was included in the reaction.
For this experiment we prepared short fluorescently labeled oligonucleotide-based DNA substrates with specific structures reflecting the biochemical activities of tested individual nucleases (Table 1). These substrates were prepared by annealing of synthetic oligonucleotides purchased from VBC Biotech. Composition of each substrate is indicated below the table; the corresponding oligonucleotides were combined in equimolar ratios. For visualization, each substrate was labeled by fluorescent dye (fluorescein), which can be detected in the gel using appropriate imaging system (FLA-9000, Fuji) with filters for particular wavelengths (excitation: 485 nm, emission: 535 nm).
Nuclease assays were performed in reaction buffer specific for particular enzyme: MUS81/EME1 (50 mM Tris pH=7.5, 5 mM MgCl2, 1 mM DTT a 100 μg/ml BSA), MRE11 (30 mM Bis-Tris pH=7.0, 50 μg/ml BSA, 1 mM DTT a 250 μM MnCl2), EXO1 and FEN1 (50 mM Tris pH=7.5, 1 mM MgCl2, 1 mM DTT a 100 μg/ml BSA). The individual reactions were prepared by mixing with highly purified enzyme (MUS81/EME1 (5 nM), MRE11 (5 nM), EXO1 (5 nM) or FEN1 (10 nM); purification protocols described below), and different concentration of inhibitor (mentioned above) in corresponding reaction buffer. The final volume of the reaction was 20 μl. After short pre-incubation (15 minutes at room temperature), the reaction was initiated by addition of 5 nM of corresponding fluorescently labeled DNA substrate (3′ flap for MUS81/EME1, 5′ flap for MRE11 and FEN1, 3′ OH for EXO1; see FIG. 1) and incubated for 15 minutes at 30° C. Next, the reaction was stopped and deproteinized by addition of 2 μl of stop buffer, containing 0.1% SDS and 500 μg/ml proteinase K, and incubated for additional 5 minutes at 30° C. Then the loading dye, containing glycerol (60% glycerol, 10 mM Tris pH=7.4, 60 mM EDTA a 0.1% Orange G), was added to each reaction ( 1/10 of the reaction volume), and the whole mixture was subjected to electrophoresis in 10% polyacrylamide native gel (110 V, 40 min, 1× TBE). Fluorescently labeled DNA was detected by FLA-9000 scanner (Fuji) and the result was evaluated using Multi-Gauge V3.2 software (Fuji).
The Mus81/Eme1 expression construct was a kind gift from Dr. Steve West (Cancer Research UK). Briefly, the nuclease complex was purified as follows. […]

Row | Compound | IC50 [1] [µM] | melting point
1 | Oc1c(-c2nc3ccccc3n2Cc2ccccc2)nnc2c(-c3ccncc3)cnn12 [Preparative Example 17D] | < 10 | 
2 | Oc1c(-c2nc3ccccc3n2Cc2ccccc2)nnc2c(-c3ccsc3)cnn12 [Preparative Example 17C] | < 50 | 
3 | CC(C)(C)c1cc2nnc(-c3nc4ccccc4[nH]3)c(N)n2n1 [Preparative Example 5F] | < 50 | 
4 | CC(C)(C)[Si](OCc1cc2nnc(-c3nc4ccccc4[nH]3)c(N)n2n1)(c1ccccc1)c1ccccc1 |  | 233.5 to 234 °C
5 | Nc1c(-c2nc3ccccc3[nH]2)nnc2cc(-c3ccccc3-c3ccccc3)nn12 [Preparative Example 5L] |  | > 250 °C
6 | CS(=O)(=O)c1ccc(-c2cnn3c(O)c(-c4nc5ccccc5n4Cc4ccccc4)nnc23)cc1 [Preparative Example 17A] | < 10 | 
7 | O=[N+]([O-])c1ccc(-c2cnn3c(O)c(-c4nc5ccccc5n4Cc4ccccc4)nnc23)cc1 [Preparative Example 17B] | < 10 | 
8 | Nc1c(-c2nc3ccccc3[nH]2)nnc2cc(-c3ccccc3Cl)nn12 [Preparative Example 5G] | < 50 | 
9 | CCc1nn2c(N)c(-c3nc4ccccc4[nH]3)nnc2c1-c1cccc(C(=O)OC)c1 [Preparative Example 5Z] | < 10 | 
10 | CCc1cc2nnc(-c3nc4ccccc4[nH]3)c(N)n2n1 [Preparative Example 5B] | < 50 | 
11 | CC(C)c1nn2c(N)c(-c3nc4ccccc4[nH]3)nnc2c1-c1ccc(F)cc1 [Preparative Example 5D] | < 50 | 
12 | CCc1nn2c(N)c(-c3nc4ccccc4[nH]3)nnc2c1Br [Preparative Example 13] |  | > 250 °C
13 | CS(=O)(=O)c1ccc(-c2cnn3c(O)c(-c4nc5ccccc5[nH]4)nnc23)cc1 [Preparative Example 18A] | < 10 | 
14 | Nc1c(-c2nc3ccccc3[nH]2)nnc2c(-c3ccc(F)cc3)cnn12 [Preparative Example 5P] | > 50 | 
15 | CCc1nn2c(O)c(-c3nc4cc(C)c(C)cc4[nH]3)nnc2c1-c1ccc(F)cc1 [Preparative Example 21] | < 10 | 
16 | CCc1nn2c(N)c(-c3nc4ccccc4[nH]3)nnc2c1-c1cccc(-c2ccccc2)c1 [Preparative Example 5Y] | < 10 | 
17 | CCc1nn2c(N)c(-c3nc4ccccc4n3Cc3ccccc3)nnc2c1-c1ccc(F)cc1 [Preparative Example 5M] | < 50 | 
18 | CCc1nn2c(O)c(-c3nc4ccccc4[nH]3)nnc2c1-c1ccc(F)cc1 [Preparative Example 8A] | < 10 | 
19 | Nc1c(-c2nc3ccccc3[nH]2)nnc2cc(C=O)nn12 [Preparative Example 7] |  | > 250 °C
20 | Cn1ccc(-c2cnn3c(O)c(-c4nc5ccccc5[nH]4)nnc23)n1 [Preparative Example 18B] | < 50 | 
21 | CCc1cc2nnc(-c3nc4ccccc4n3Cc3ccccc3)c(N)n2n1 [Preparative Example 5N] | < 50 | 
22 | CCc1nn2c(N)c(-c3nc4ccccc4[nH]3)nnc2c1-c1cccc(C(=O)O)c1 [Preparative Example 5Zb] | < 10 | 
23 | Cn1ccc(-c2cnn3c(O)c(-c4nc5ccccc5n4Cc4ccccc4)nnc23)n1 [Preparative Example 17E] | < 50 | 
24 | CCc1nn2c(N)c(C#N)nnc2c1-c1ccc(F)cc1 [Preparative Example 11] | > 50 | > 215 °C (dec.)
25 | CCc1nn2c(N)c(C(N)=O)nnc2c1-c1ccc(F)cc1 [Preparative Example 12] | > 50 | 
26 | Nc1c(-c2nc3ccccc3[nH]2)nnc2cc(CO)nn12 [Preparative Example 6] | > 50 | 
27 | Nc1c(-c2nc3ccccc3[nH]2)nnc2ccnn12 [Preparative Example 5O] | > 50 | 
